{
  "source": "patent US20260007599A1",
  "about": "“TICAGRELOR IV FORMULATIONS FOR USE IN THE TREATMENT OF GRAM-POSITIVE BACTEREMIA” (Hyloris Developments SA, priority 2023, published 2026)",
  "assay": "Solubilization of ticagrelor in unbuffered cyclodextrin stock solutions in milli Q water, appearance on shaking platform;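 also: plus means clear and fully dissolved while plus-minus means clear solution with precipitation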",
  "assay_type": "physicochemical",
  "procedure": "In a first example two different types of cyclodextrin were used and compared for the solubilization of ticagrelor. An unbuffered stock solution of HPBCD or SBECD was made in water at the target concentrations of 20 w/w %, 25 w/w %, 30 w/w %, 35 w/w % and 40 w/w %. Ticagrelor was added slowly under vortex. Ticagrelor was used at concentrations of 5, 10 or 14 mg/ml in milli Q water. The ticagrelor-cyclodextrin solutions were left on a shaking platform. No sonification or heat was applied.",
  "note": "Marks after values point to notes of the source that are not given here.",
  "data": [
    {"molecule": "CCCSc1nc(N[C@@H]2C[C@H]2c2ccc(F)c(F)c2)c2nnn([C@@H]3C[C@H](OCCO)[C@@H](O)[C@H]3O)c2n1", "note": "[ticagrelor, (1S,2S,3R,5S)-3-{7-[(1R,2S)-2-(3,4-difluorophenyl)cyclopropylamino]5-(propylthio)-3H-(1,2,3)triazolo (4,5-D)pyrimidin-3-yl}-5-(2 hydroxyethoxy) cyclopentane-1,2-diol]", "values": [
      {"measurement": "Appearance in cyclodextrin", "setting": "HPβCD 20% w/w, ticagrelor 5 mg/ml, after 5 min of shaking", "value": "− (translucent solution with precipitation)"},
      {"measurement": "Appearance in cyclodextrin", "setting": "HPβCD 20% w/w, ticagrelor 5 mg/ml, after 30 min of shaking", "value": "+/−"},
      {"measurement": "Appearance in cyclodextrin", "setting": "HPβCD 20% w/w, ticagrelor 5 mg/ml, after 60 min of shaking", "value": "+/−"},
      {"measurement": "Appearance in cyclodextrin", "setting": "HPβCD 20% w/w, ticagrelor 5 mg/ml, after 3 h of shaking", "value": "+/−"},
      {"measurement": "Appearance in cyclodextrin", "setting": "HPβCD 20% w/w, ticagrelor 5 mg/ml, after overnight shaking", "value": "− (translucent solution with precipitation)"},
      {"measurement": "Appearance in cyclodextrin", "setting": "HPβCD 20% w/w, ticagrelor 10 mg/ml, after 5 min of shaking", "value": "− (translucent solution with precipitation)"},
      {"measurement": "Appearance in cyclodextrin", "setting": "HPβCD 20% w/w, ticagrelor 10 mg/ml, after 30 min of shaking", "value": "− (translucent solution with precipitation)"},
      {"measurement": "Appearance in cyclodextrin", "setting": "HPβCD 20% w/w, ticagrelor 10 mg/ml, after 60 min of shaking", "value": "− (translucent solution with precipitation)"},
      {"measurement": "Appearance in cyclodextrin", "setting": "HPβCD 20% w/w, ticagrelor 10 mg/ml, after 3 h of shaking", "value": "− (translucent solution with precipitation)"},
      {"measurement": "Appearance in cyclodextrin", "setting": "HPβCD 20% w/w, ticagrelor 10 mg/ml, after overnight shaking", "value": "− (translucent solution with precipitation)"},
      {"measurement": "Appearance in cyclodextrin", "setting": "HPβCD 20% w/w, ticagrelor 14 mg/ml, after 5 min of shaking", "value": "− (translucent solution with precipitation)"},
      {"measurement": "Appearance in cyclodextrin", "setting": "HPβCD 20% w/w, ticagrelor 14 mg/ml, after 30 min of shaking", "value": "− (translucent solution with precipitation)"},
      {"measurement": "Appearance in cyclodextrin", "setting": "HPβCD 20% w/w, ticagrelor 14 mg/ml, after 60 min of shaking", "value": "− (translucent solution with precipitation)"},
      {"measurement": "Appearance in cyclodextrin", "setting": "HPβCD 20% w/w, ticagrelor 14 mg/ml, after 3 h of shaking", "value": "− (translucent solution with precipitation)"},
      {"measurement": "Appearance in cyclodextrin", "setting": "HPβCD 20% w/w, ticagrelor 14 mg/ml, after overnight shaking", "value": "− (translucent solution with precipitation)"},
      {"measurement": "Appearance in cyclodextrin", "setting": "HPβCD 25% w/w, ticagrelor 5 mg/ml, after 5 min of shaking", "value": "− (translucent solution with precipitation)"},
      {"measurement": "Appearance in cyclodextrin", "setting": "HPβCD 25% w/w, ticagrelor 5 mg/ml, after 30 min of shaking", "value": "+/−"},
      {"measurement": "Appearance in cyclodextrin", "setting": "HPβCD 25% w/w, ticagrelor 5 mg/ml, after 60 min of shaking", "value": "+/−"},
      {"measurement": "Appearance in cyclodextrin", "setting": "HPβCD 25% w/w, ticagrelor 5 mg/ml, after 3 h of shaking", "value": "+/−"},
      {"measurement": "Appearance in cyclodextrin", "setting": "HPβCD 25% w/w, ticagrelor 5 mg/ml, after overnight shaking, after one hour of sonication", "value": "+* (clear, appeared completely dissolved)"},
      {"measurement": "Appearance in cyclodextrin", "setting": "HPβCD 25% w/w, ticagrelor 10 mg/ml, after 5 min of shaking", "value": "− (translucent solution with precipitation)"},
      {"measurement": "Appearance in cyclodextrin", "setting": "HPβCD 25% w/w, ticagrelor 10 mg/ml, after 30 min of shaking", "value": "− (translucent solution with precipitation)"},
      {"measurement": "Appearance in cyclodextrin", "setting": "HPβCD 25% w/w, ticagrelor 10 mg/ml, after 60 min of shaking", "value": "− (translucent solution with precipitation)"},
      {"measurement": "Appearance in cyclodextrin", "setting": "HPβCD 25% w/w, ticagrelor 10 mg/ml, after 3 h of shaking", "value": "− (translucent solution with precipitation)"},
      {"measurement": "Appearance in cyclodextrin", "setting": "HPβCD 25% w/w, ticagrelor 10 mg/ml, after overnight shaking", "value": "− (translucent solution with precipitation)"},
      {"measurement": "Appearance in cyclodextrin", "setting": "HPβCD 25% w/w, ticagrelor 14 mg/ml, after 5 min of shaking", "value": "− (translucent solution with precipitation)"},
      {"measurement": "Appearance in cyclodextrin", "setting": "HPβCD 25% w/w, ticagrelor 14 mg/ml, after 30 min of shaking", "value": "− (translucent solution with precipitation)"},
      {"measurement": "Appearance in cyclodextrin", "setting": "HPβCD 25% w/w, ticagrelor 14 mg/ml, after 60 min of shaking", "value": "− (translucent solution with precipitation)"},
      {"measurement": "Appearance in cyclodextrin", "setting": "HPβCD 25% w/w, ticagrelor 14 mg/ml, after 3 h of shaking", "value": "− (translucent solution with precipitation)"},
      {"measurement": "Appearance in cyclodextrin", "setting": "HPβCD 25% w/w, ticagrelor 14 mg/ml, after overnight shaking", "value": "− (translucent solution with precipitation)"},
      {"measurement": "Appearance in cyclodextrin", "setting": "HPβCD 30% w/w, ticagrelor 5 mg/ml, after 5 min of shaking", "value": "− (translucent solution with precipitation)"},
      {"measurement": "Appearance in cyclodextrin", "setting": "HPβCD 30% w/w, ticagrelor 5 mg/ml, after 30 min of shaking", "value": "+/−"},
      {"measurement": "Appearance in cyclodextrin", "setting": "HPβCD 30% w/w, ticagrelor 5 mg/ml, after 60 min of shaking", "value": "+/−"},
      {"measurement": "Appearance in cyclodextrin", "setting": "HPβCD 30% w/w, ticagrelor 5 mg/ml, after 3 h of shaking", "value": "+/−"},
      {"measurement": "Appearance in cyclodextrin", "setting": "HPβCD 30% w/w, ticagrelor 5 mg/ml, after overnight shaking", "value": "+ (clear, appeared completely dissolved)"},
      {"measurement": "Appearance in cyclodextrin", "setting": "HPβCD 30% w/w, ticagrelor 10 mg/ml, after 5 min of shaking", "value": "− (translucent solution with precipitation)"},
      {"measurement": "Appearance in cyclodextrin", "setting": "HPβCD 30% w/w, ticagrelor 10 mg/ml, after 30 min of shaking", "value": "− (translucent solution with precipitation)"},
      {"measurement": "Appearance in cyclodextrin", "setting": "HPβCD 30% w/w, ticagrelor 10 mg/ml, after 60 min of shaking", "value": "− (translucent solution with precipitation)"},
      {"measurement": "Appearance in cyclodextrin", "setting": "HPβCD 30% w/w, ticagrelor 10 mg/ml, after 3 h of shaking", "value": "− (translucent solution with precipitation)"},
      {"measurement": "Appearance in cyclodextrin", "setting": "HPβCD 30% w/w, ticagrelor 10 mg/ml, after overnight shaking", "value": "− (translucent solution with precipitation)"},
      {"measurement": "Appearance in cyclodextrin", "setting": "HPβCD 30% w/w, ticagrelor 14 mg/ml, after 5 min of shaking", "value": "− (translucent solution with precipitation)"},
      {"measurement": "Appearance in cyclodextrin", "setting": "HPβCD 30% w/w, ticagrelor 14 mg/ml, after 30 min of shaking", "value": "− (translucent solution with precipitation)"},
      {"measurement": "Appearance in cyclodextrin", "setting": "HPβCD 30% w/w, ticagrelor 14 mg/ml, after 60 min of shaking", "value": "− (translucent solution with precipitation)"},
      {"measurement": "Appearance in cyclodextrin", "setting": "HPβCD 30% w/w, ticagrelor 14 mg/ml, after 3 h of shaking", "value": "− (translucent solution with precipitation)"},
      {"measurement": "Appearance in cyclodextrin", "setting": "HPβCD 30% w/w, ticagrelor 14 mg/ml, after overnight shaking", "value": "− (translucent solution with precipitation)"},
      {"measurement": "Appearance in cyclodextrin", "setting": "HPβCD 35% w/w, ticagrelor 5 mg/ml, after 5 min of shaking", "value": "+/−"},
      {"measurement": "Appearance in cyclodextrin", "setting": "HPβCD 35% w/w, ticagrelor 5 mg/ml, after 30 min of shaking", "value": "+/−"},
      {"measurement": "Appearance in cyclodextrin", "setting": "HPβCD 35% w/w, ticagrelor 5 mg/ml, after 60 min of shaking", "value": "+/−"},
      {"measurement": "Appearance in cyclodextrin", "setting": "HPβCD 35% w/w, ticagrelor 5 mg/ml, after 3 h of shaking", "value": "+/−"},
      {"measurement": "Appearance in cyclodextrin", "setting": "HPβCD 35% w/w, ticagrelor 5 mg/ml, after overnight shaking", "value": "+ (clear, appeared completely dissolved)"},
      {"measurement": "Appearance in cyclodextrin", "setting": "HPβCD 35% w/w, ticagrelor 10 mg/ml, after 5 min of shaking", "value": "− (translucent solution with precipitation)"},
      {"measurement": "Appearance in cyclodextrin", "setting": "HPβCD 35% w/w, ticagrelor 10 mg/ml, after 30 min of shaking", "value": "+/−"},
      {"measurement": "Appearance in cyclodextrin", "setting": "HPβCD 35% w/w, ticagrelor 10 mg/ml, after 60 min of shaking", "value": "+/−"}
    ]}
  ]
}
